Legend:
[1] = test system: human neutrophils; test: HxA3-induced rise in intracellular calcium in neutrophils with internalised GTP-γ-S or GTP; assay type: cell-based; conditions: for effect of internalised nucleotide on HxA3-induced rise in intracellular calcium: approximate cytosolic concentration 21 μM
Text: (§1) For measurement of intracellular calcium, the cells were centrifuged and loaded with INDO-1 AM (see Methods for details). The change in intracellular calcium was monitored with fluorescence spectrophotometer at 331 nm excitation and 410 nm emission. […] Data represents the Mean±SD (n=4 separate experiments).
(§2) The method of Jaconi et al (1993, J. Biol. Chem. 268, 26077-26078] was employed with modifications to incorporate GTP-γ-S or GTP into human neutrophils. Specifically, 20×10^6 cells were incubated in 100 μl of sucrose-rich (500 mM) buffer containing in mM: NaCl 140, KCl 5, MgCl2 1, Hepes sodium-free 10, glucose 10, and EGTA 1, 10% polyetylene glycol 1000, pH 7.3. The buffer either contained nothing else (control) or GTP-γ-S (50 mM) or GTP (50 mM). The cells were incubated for 15 min at 37° C. to allow fluid-phase endocytosis of extracellular material. The cells were hypotonically shocked during 2 min at 37° C. by the addition of 1 mL of hypotonic medium made up of 1 part normal medium and 0.66 parts of water [Hallet & Campbell. 1983, Immunology, 50, 487-495]. The cells were then centrifuged at 900 rpm×5 min and resuspended in 2 mL of calcium-free assay medium for the binding studies or in RPMI 1640 for the calcium measurements. […] The particulate matter was sedimented through centrifugation and fluorescence in the supernatant was measured in a fluorescence spectrophotometer and 430 nm excitation, 540 nm emission using dilutions of the dye as standard. While unshocked neutrophils contained virtually no fluorescence above background, the shocked cells contained approximately 24 ng dye/4×10^6 cells. […]
(§3) Intracellular free calcium concentrations were monitored continuously in a Perkin-Elmer fluorescence spectrophotometer (Model 65040) using Indo-I AM-loaded neutrophils. […]
(§4) Unloaded dye was removed by centrifugation and the cells were resuspended in fresh RPMI 1640(1 mL). […] The resulting effect was recorded on a chart recorder (LKB model 2210, Pharmacia, Sweden) at 1 cm/min chart speed for the next 5 min (FIG. 20).

[2] = test system: human neutrophils; test: Rise in intracellular calcium in INDO-1AM loaded neutrophil suspensions, normal vs Type 1 diabetic; assay type: cell-based
Text: It was previously reported that the native HX cause a rise in intracellular calcium in suspensions of human neutrophils. […] In view of the findings reported above on alterations in the hepoxilin binding protein in diabetes, it was investigated whether the response to varied amounts of hepoxilin in terms of calcium release was altered in Type 1 diabetic neutrophils. This involved measurement of the rise in intracellular calcium in INDO-1AM loaded neutrophil suspensions spectrofluorometrically after addition of HxA3.
Normal and diabetic neutrophils were compared to 4 concentrations of HxA3, i.e. 100, 200, 500 and 1000 ng added in 1 μl DM50 to 2×10^6 cells/ml. […] Additional data was obtained by administering 1000 ng of hepoxilin five minutes after the first test. Previous results with normal neutrophils have shown that the response to a second addition of hepoxilin is blunted depending on the extent of calcium rise in the first test. […]
as §3, §4

[3] = test system: bleomycin-induced lung fibrosis; test: Bleomycin-induced lung injury mouse model; assay type: in vivo; conditions: for inhibition of bleomycin-evoked lung fibrosis, relative potency: 200 μg/mouse bleomycin, various concentrations
Experimental: Mice were divided into 7 groups, each containing 5 animals. All groups were administered i.p. saline+7% ethanol as vehicle. Group 1 received only vehicle. Groups 2-7 received intratracheal bleomycin. Bleomycin is an antibiotic having antineoplastic activity. It is used clinically to treat malignancies such as lymphoma and testicular cancer. However, it has several side effects such as causing lung fibrosis characterized by diffuse alveolar hemorrhage and marked accumulation of inflammatory cells and an increase in collagen synthesis. Additionally, Group 3 received Trolox antioxidant, Group 4 received H1, Group 5 received H2, Group 6 received H3, and Group 7 received H4. All hepoxilins were dissolved in 7 μl ethanol and diluted to 100 μl saline for i.p. administration. All compounds were administered daily at the dose of 100 μg/20 g (5000 μg/kg) mouse for 8 days. Lungs from all animals were perfused and fixed for histology. […] As in section B1 above, the effective concentration of the drugs is unknown due to the still undetermined uptake and distribution in the body. The present study served as an indicator of biological activity in vivo. The study was also conducted using saline or 200 μg/mouse bleomycin. In these studies the hepoxilin analogs H1 and H2 were administered in various concentrations (FIGS. 14A-14E). […] Lung fibrosis was associated with increased collagen synthesis (FIGS. 15A, 15B). […] Collagen staining was done using sirius red and fast green.

[4] = test system: bleomycin-evoked vascular permeability; test: Bleomycin-evoked skin vascular permeability (Evans Blue); assay type: in vivo; conditions: 100 ng intradermally, bleomycin 12 μg
Experimental: H1 and 2 blocked the bleomycin (12 μg)—evoked vascular permeability at 100 ng intradermally. (FIGS. 18 and 19). Vascular permeability was measured using Evans Blue I.V. Hepoxilin analogs were intradermally applied and within 30 minutes, a formamide extraction of punched skin was done. Extraction and absorbance was read at 620 nm.

[5] = test system: hepoxilin binding protein in neutrophils; test: Binding of [3H]-HxA3 (8S) to neutrophils with internalised GTP-γ-S or GTP; parameters: species or system human; conditions: approximate cytosolic concentration 21 μM
Text: as §1
as §2, with “487-495].” for “487-495]. The cells were then centrifuged at 900 rpm×5 min and resuspended in 2 mL of calcium-free assay medium for the binding studies or in RPMI 1640 for the calcium measurements.”, “standard.” for “standard. While unshocked neutrophils contained virtually no fluorescence above background, the shocked cells contained approximately 24 ng dye/4×10^6 cells.”

CCCCC/C=C\C[C@@H]1O[C@H]1/C=C/C(O)C/C=C\CCCC(=O)O (stereo partly drawn) [HxA3, 8(S,R)-hydroxy-11(S),12(S)-epoxy-eicosa-5Z, 9E, 14Z-trienoic acid]
change in intracellular calcium ([1]; 2×10^6 cells in 1 mL calcium-free buffer, 37° C.): rapid rise in intracellular calcium | calcium response to second addition, diabetic vs normal neutrophils ([2]; 1000 ng five minutes after the first test): more inhibition | rise in intracellular free calcium, diabetic vs normal neutrophils ([2]; 100, 200, 500 and 1000 ng in 1 μl to 2×10^6 cells/ml): diabetic neutrophils are more responsive

CCCCC/C=C\CC1CC1/C=C/[C@H](O)C/C=C\CCCC(=O)OC (stereo partly drawn) [H2, 8(R)hydroxy-11,12-cyclopropyl-eicosa-5Z, 10E, 14Z-trienoic acid methyl ester]
inhibition of bleomycin-evoked lung fibrosis, relative potency [3]: most potent | bleomycin-evoked vascular permeability [4]: blocked

Nc1nc2c(ncn2[C@@H]2O[C@H](COP(=O)(O)OP(=O)(O)OP(=O)(O)O)[C@@H](O)[C@H]2O)c(=O)[nH]1 [GTP]
effect of internalised nucleotide on HxA3-induced rise in intracellular calcium [1]: no significant change

Nc1nc2c(ncn2[C@@H]2O[C@H](COP(=O)(O)OP(=O)(O)OP(O)(O)=S)[C@@H](O)[C@H]2O)c(=O)[nH]1 [GTP-γ-S]
effect of internalised nucleotide on binding of [3H]-HxA3 [5]: inhibition | effect of internalised nucleotide on HxA3-induced rise in intracellular calcium [1]: inhibition

CCCCC/C=C\CC1CC1/C=C/[C@@H](O)C/C=C\CCCC(=O)OC (stereo partly drawn) [H1, 8(S)-hydroxy-11 ,12-cyclopropyl-eicosa-5Z, 10E, 14Z-trienoic acid methyl ester]
inhibition of bleomycin-evoked lung fibrosis, relative potency [3]: most potent | dose dependence of activity against lung fibrosis ([3]; 400 μg/kg, 2 mg/kg, 4 mg/kg): dose dependent | potency against lung fibrosis compared with Amifostine and Trolox ([3]; Amifostine 200 mg/kg, Trolox 30 mg/kg): more potent than Amifostine (200 mg/kg) or Trolox (30 mg/kg) | threshold activity against lung fibrosis ([3]; i.p.): 400 µg/kg | bleomycin-evoked vascular permeability [4]: blocked

Source: patent US6673785B1, “Use of hepoxilins or hepoxilin analogs as antidiabetics, antiinflammatory agents” (priority 1999, dated 2004)
